Where a name gives a salt, the structure may show the parent alone. Read-outs that look alike come from different tables or passages of the source.
System: human primary T-cells, IL-2 stimulated proliferation (JAK-1 and JAK-3 dependent; reported as JAK3 activity)
Test: Human primary T-cell proliferation stimulated by IL-2 (Example 3)
Type: cell-based
Conditions: tested under conditions described in Example 3 (IL-2 stimulated human primary T-cell proliferation), read-out: ability to inhibit JAK3 activity, IC50 range (Table V)
Summary of the method: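 Peripheral-blood human T-cells pre-activated via TCR/CD28, IL-2-starved overnight, then cultured 72 h at 37 °C with compound in Yssel's medium containing IL-2 (80 U/mL in cell suspension). Proliferation read as viable-cell ATP by CellTiter-Glo luminescence; reduction versus control taken as JAK pathway inhibition.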

Compound | IC50 (Homo sapiens, T-cell) | IC50
Cc1cnc(Nc2ccc(N3CCN(C)CC3)nc2)nc1Nc1ccc2oc(=O)n(C(C)C)c2c1 [II-7, N2-(6-(4-methylpiperazin-1-yl)pyridin-3-yl)-N4-(3-isopropylbenzo[d]oxazol-2(3H)-on-5-yl)-5-methylpyrimidine-2,4-diamine] | < 500 nM | –
Cc1cnc(Nc2ccc(N3CCN(C(=O)OC(F)(F)F)CC3)nc2)nc1Nc1ccc2oc(=O)[nH]c2c1 [II-8, N4-(benzo[d]oxazol-2(3H)-on-5-yl)-N2-(6-(4-trifluoromethoxycarbonylpiperazin-1-yl)pyridin-3-yl)-5-methylpyrimidine-2,4-diamine] | < 500 nM | –
COC(=O)N1CCN(c2ccc(Nc3ncc(C)c(Nc4ccc5oc(=O)[nH]c5c4)n3)cn2)CC1 [II-9, N4-(benzo[d]oxazol-2(3H)-on-5-yl)-N2-(6-(4-methoxycarbonylpiperazin-1-yl)pyridin-3-yl)-5-methylpyrimidine-2,4-diamine] | < 500 nM | –
Cc1cnc(Nc2ccc(N3CCNCC3)nc2)nc1Nc1ccc2oc(=O)[nH]c2c1 [II-10, N4-(benzo[d]oxazol-2(3H)-on-5-yl)-N2-(6-(piperazin-1-yl)pyridin-3-yl)-5-methylpyrimidine-2,4-diamine] | < 500 nM | –
Cc1cnc(Nc2ccc(N3CCN(C(=O)OC(C)(C)C)C(C)C3)nc2)nc1Nc1ccc2oc(=O)[nH]c2c1 (centres unmarked) [II-11, N4-(benzo[d]oxazol-2(3H)-on-5-yl)-N2-(6-(3-methyl-4-tert-butoxycarbonylpiperazin-1-yl)pyridin-3-yl)-5-methylpyrimidine-2,4-diamine] | < 500 nM | –
Cc1cnc(Nc2ccc(N3CCNC(C)C3)nc2)nc1Nc1ccc2oc(=O)[nH]c2c1 (centres unmarked) [II-12, N4-(benzo[d]oxazol-2(3H)-on-5-yl)-N2-(6-(3-methylpiperazin-1-yl)pyridin-3-yl)-5-methylpyrimidine-2,4-diamine] | < 500 nM | –
Cc1cnc(Nc2ccc(N3CCN(C)CC3)nc2)nc1Nc1ccc2oc(=O)[nH]c2c1 [II-13, N4-(benzoxazolin-2-on-5-yl)-N2-[2-(4-methylpiperazin-1-yl)pyridin-5-yl]-5-methylpyrimidine-2,4-diamine] | < 500 nM | –
CN1CCN(c2ccc(Nc3ncc(F)c(Nc4ccc5oc(=O)[nH]c5c4)n3)cn2)CC1 [II-14, N4-(benzo[d]oxazol-2(3H)-on-5-yl)-N2-[2-(4-methylpiperazin-1-yl)pyridin-5-yl]-5-fluoropyrimidine-2,4-diamine] | < 500 nM | –
Cc1cnc(Nc2ccc(N3CCN(C)CC3)nc2)nc1Nc1ccc2[nH]c(=O)[nH]c2c1 [II-15, N4-(benzimidazolin-2-on-5-yl)-N2-[2-(4-methylpiperazin-1-yl)pyridin-5-yl]-5-methylpyrimidine-2,4-diamine] | – | < 500 nM
CN1CCN(c2ccc(Nc3ncc(F)c(Nc4ccc5[nH]c(=O)[nH]c5c4)n3)cn2)CC1 [II-16, N4-(benzimidazolin-2-on-5-yl)-N2-[2-(4-methylpiperazin-1-yl)pyridin-5-yl]-5-fluoropyrimidine-2,4-diamine] | – | < 500 nM
Cc1cnc(Nc2ccc(N3CCOCC3)nc2)nc1Nc1ccc2oc(=O)[nH]c2c1 [II-17, N4-(benzo[d]oxazol-2(3H)-on-5-yl)-N2-((2-morpholinyl)pyridin-5-yl)-5-methylpyrimidine-2,4-diamine] | – | < 500 nM
O=c1[nH]c2cc(Nc3nc(Nc4ccc(N5CCOCC5)nc4)ncc3F)ccc2o1 [II-18, N4-(benzo[d]oxazol-2(3H)-on-5-yl)-N2-((2-morpholinyl)pyridin-5-yl)-5-fluoropyrimidine-2,4-diamine] | – | < 500 nM
O=c1[nH]c2ccc(Nc3nc(Nc4ccc(N5CCOCC5)nc4)ncc3F)cc2[nH]1 [II-19, N4-(benzimidazolin-2-on-5-yl)-N2-((2-morpholinyl)pyridin-5-yl)-5-fluoropyrimidine-2,4-diamine] | – | < 500 nM
Cc1cnc(Nc2ccc(N3CCN(C)CC3)nc2)nc1Nc1ccc2c(c1)n(C)c(=O)n2C [II-20, N4-(1,3-dimethylbenzimidazolin-2-on-5-yl)-N2-[2-(4-methylpiperazino)pyridin-5-yl]-5-methylpyrimidine-2,4-diamine] | – | < 500 nM
CN1CCN(c2ccc(Nc3ncc(F)c(Nc4ccc5c(c4)n(C)c(=O)n5C)n3)cn2)CC1 [II-21, N4-(1,3-dimethylbenzimidazolin-2-on-5-yl)-N2-[2-(4-methylpiperazino)pyridin-5-yl]-5-fluoropyrimidine-2,4-diamine] | – | 500 to 5000 nM
Cc1cnc(Nc2ccc(N3CCN(C)CC3)nc2)nc1Nc1ccc2oc(=O)n(C)c2c1 [II-22, N2-(6-(4-methylpiperazin-1-yl)pyridin-3-yl)-N4-(3-methyl-2-oxo-2,3-dihydrobenzo[d]oxazol-5-yl)-5-methylpyrimidine-2,4-diamine] | < 500 nM | –

Compound | IC50 (Homo sapiens, T-cell) | IC50
Cc1cnc(Nc2ccc(N3CCN(C)CC3)nc2)nc1Nc1ccc2c(c1)oc(=O)n2C [II-23, N2-(6-(4-methylpiperazin-1-yl)pyridin-3-yl)-N4-(3-methyl-2-oxo-2,3-dihydrobenzo[d]oxazol-6-yl)-5-methylpyrimidine-2,4-diamine trifluoroacetate salt] | < 500 nM | –
CN1CCN(c2ccc(Nc3ncc(F)c(Nc4ccc5oc(=O)n(C)c5c4)n3)cn2)CC1 [II-24, N2-(6-(4-methylpiperazin-1-yl)pyridin-3-yl)-N4-(3-methyl-2-oxo-2,3-dihydrobenzo[d]oxazol-5-yl)-5-fluoropyrimidine-2,4-diamine] | 500 to 5000 nM | –
Cc1cnc(Nc2ccc(N3CCN(C)CC3)nc2)nc1Nc1ccc2[nH]c(=O)oc2c1 [II-25, 6-(5-methyl-2-(6-(4-methylpiperazin-1-yl)pyridin-3-ylamino)pyrimidin-4-ylamino)benzo[d]oxazol-2(3H)-one] | < 500 nM | –
Cc1cnc(Nc2cnc(N3CCN(C)CC3)c(C)c2)nc1Nc1ccc2oc(=O)[nH]c2c1 [II-26, N4-(benzoxazolin-2-on-5-yl)-N2-[3-methyl-2-(4-methylpiperazin-1-yl)pyridin-5-yl]-5-methylpyrimidine-2,4-diamine] | < 500 nM | –
Cc1cnc(Nc2cnc(N3CCN(C)CC3)c(C)c2)nc1Nc1ccc2[nH]c(=O)[nH]c2c1 [II-27, N4-(benzimidazolin-2-on-5-yl)-N2-[3-methyl-2-(4-methylpiperazin-1-yl)pyridin-5-yl]-5-methylpyrimidine-2,4-diamine] | – | < 500 nM
Cc1cnc(Nc2cnc(N3C[C@@H]4C[C@H]3CN4C)c(C)c2)nc1Nc1ccc2oc(=O)[nH]c2c1 [II-28, N4-(benzoxazolin-2-on-5-yl)-N2-[3-methyl-2-((1S,4S)-5-methyl-2,5-diazabicyclo[2.2.1]heptan-2-yl)pyridin-5-yl]-5-methylpyrimidine-2,4-diamine] | < 500 nM | –
Cc1cc(Nc2ncc(F)c(Nc3ccc4oc(=O)[nH]c4c3)n2)cnc1N1CCN(C)CC1 [II-30, N4-(benzoxazolin-2-on-5-yl)-N2-[3-methyl-2-(4-methylpiperazin-1-yl)pyridin-5-yl]-5-fluoropyrimidine-2,4-diamine] | < 500 nM | –
Cc1cnc(Nc2ccc(N3C[C@@H]4C[C@H]3CN4C)nc2)nc1Nc1ccc2oc(=O)[nH]c2c1 [II-31, N4-(benzoxazolin-2-on-5-yl)-N2-[2-((1S,4S)-5-methyl-2,5-diazabicyclo[2.2.1]heptan-2-yl)pyridin-5-yl]-5-methylpyrimidine-2,4-diamine] | < 500 nM | –
Cc1cnc(Nc2ccc(N3C[C@@H]4C[C@H]3CO4)nc2)nc1Nc1ccc2oc(=O)[nH]c2c1 [II-32, N4-(benzoxazolin-2-on-5-yl)-N2-[2-((1S,4S)-2-oxa-5-azabicyclo[2.2.1]heptan-5-yl)pyridin-5-yl]-5-methylpyrimidine-2,4-diamine] | < 500 nM | –
O=c1[nH]c2cc(Nc3nc(Nc4ccc(N5C[C@@H]6C[C@H]5CO6)nc4)ncc3F)ccc2o1 [II-34, N4-(benzoxazolin-2-on-5-yl)-N2-[2-((1S,4S)-2-oxa-5-azabicyclo[2.2.1]heptan-5-yl)pyridin-5-yl]-5-fluoropyrimidine-2,4-diamine] | < 500 nM | –
Cc1cnc(Nc2ccc(NC3CCN(C)CC3)nc2)nc1Nc1ccc2oc(=O)[nH]c2c1 [II-35, N4-(benzo[d]oxazol-2(3H)-on-5-yl)-N2-[2-(1-methylpiperidin-4-yl)aminopyridin-5-yl]-5-methylpyrimidine-2,4-diamine] | < 500 nM | –
Cc1cnc(Nc2ccc(NC3CCNCC3)nc2)nc1Nc1ccc2oc(=O)[nH]c2c1 [II-36, N4-(benzo[d]oxazol-2(3H)-on-5-yl)-N2-[2-(1H-piperidin-4-yl)aminopyridin-5-yl]-5-methylpyrimidine-2,4-diamine] | – | < 500 nM
Cc1cnc(Nc2ccc(NC3CC4CCC(C3)N4C)nc2)nc1Nc1ccc2oc(=O)[nH]c2c1 (centres unmarked) [II-37, N4-(benzo[d]oxazol-2(3H)-on-5-yl)-N2-[2-(8-methyl-8-aza-bicyclo[3.2.1]oct-3-yl)aminopyridin-5-yl]-5-methylpyrimidine-2,4-diamine] | 500 to 5000 nM | –
Cc1cnc(Nc2cnc(N3CCN(C)CC3)c(C(F)(F)F)c2)nc1Nc1ccc2oc(=O)[nH]c2c1 [II-39, N4-(benzo[d]oxazolin-2(3H)-on-5-yl)-N2-[3-trifluoromethyl-2-(4-methylpiperazin-1-yl)pyridin-5-yl]-5-methylpyrimidine-2,4-diamine] | < 500 nM | –
Cc1cnc(Nc2cnc(N3C[C@@H]4C[C@H]3CN4C)c(F)c2)nc1Nc1ccc2oc(=O)[nH]c2c1 [II-40, N4-(benzoxazolin-2-on-5-yl)-N2-[3-fluoro-2-((1S,4S)-5-methyl-2,5-diazabicyclo[2.2.1]heptan-2-yl)pyridin-5-yl]-5-methylpyrimidine-2,4-diamine] | < 500 nM | –
Cc1cnc(Nc2ccc(N3CCN(C(=O)OC(C)(C)C)[C@@H](C)C3)nc2)nc1Nc1ccc2oc(=O)[nH]c2c1 [II-41, (S)-2-Methyl-4-{5-[5-methyl-4-(2-oxo-2,3-dihydro-benzooxazol-5-ylamino)-pyrimidin-2-ylamino]-pyridin-2-yl}-piperazine-1-carboxylic acid tert-butyl ester] | < 500 nM | –

Source: patent US10005767B2, “Compositions and methods for inhibition of the JAK pathway” (Rigel Pharmaceuticals, Inc., priority 2009, dated 2018)
